# Results published in US12187759B2, “TLR7 agonists” (Primmune Therapeutics, Inc., priority 2019, dated 2025).
# Like-named read-outs stand apart in the source and are kept apart here.
# What was measured:
# [1] = biological target: T1, human TLR7 (Homo sapiens, UniProt Q9NYK1); experiment: TLR7 reporter cell assay (HEK293 cells stably expressing human TLR7 with NF-κB-driven SEAP reporter); type: cell-based; conditions: for EC50: fit of SEAP dose response, ymax from 28.5 μM resiquimod
# T1 construct: host or cells: HEK293
# T1 sequence (Q9NYK1 27-1049): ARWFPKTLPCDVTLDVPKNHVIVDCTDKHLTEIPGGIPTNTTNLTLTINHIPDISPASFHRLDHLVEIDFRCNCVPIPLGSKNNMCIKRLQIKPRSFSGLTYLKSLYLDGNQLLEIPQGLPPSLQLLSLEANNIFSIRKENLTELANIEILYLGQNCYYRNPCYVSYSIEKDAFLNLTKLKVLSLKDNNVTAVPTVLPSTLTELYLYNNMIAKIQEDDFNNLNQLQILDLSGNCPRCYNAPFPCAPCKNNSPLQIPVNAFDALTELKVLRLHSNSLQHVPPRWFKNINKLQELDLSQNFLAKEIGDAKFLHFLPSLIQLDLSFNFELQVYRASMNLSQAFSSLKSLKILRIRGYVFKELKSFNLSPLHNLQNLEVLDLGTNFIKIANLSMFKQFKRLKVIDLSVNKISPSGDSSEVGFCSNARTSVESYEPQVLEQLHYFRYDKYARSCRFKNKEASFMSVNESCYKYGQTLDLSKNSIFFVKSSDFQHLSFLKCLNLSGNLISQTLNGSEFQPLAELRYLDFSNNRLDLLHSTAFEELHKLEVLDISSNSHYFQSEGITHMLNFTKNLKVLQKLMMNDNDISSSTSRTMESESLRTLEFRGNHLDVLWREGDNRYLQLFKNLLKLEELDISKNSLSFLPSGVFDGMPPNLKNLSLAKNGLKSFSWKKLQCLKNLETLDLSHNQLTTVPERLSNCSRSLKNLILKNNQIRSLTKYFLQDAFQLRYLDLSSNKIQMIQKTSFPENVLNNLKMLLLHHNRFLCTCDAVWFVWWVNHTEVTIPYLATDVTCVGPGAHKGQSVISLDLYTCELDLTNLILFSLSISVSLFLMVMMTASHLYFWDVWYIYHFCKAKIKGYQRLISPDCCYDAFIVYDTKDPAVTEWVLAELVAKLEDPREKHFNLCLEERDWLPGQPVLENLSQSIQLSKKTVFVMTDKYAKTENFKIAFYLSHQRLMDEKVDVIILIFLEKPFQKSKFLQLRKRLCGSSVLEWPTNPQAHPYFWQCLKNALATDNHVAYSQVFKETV
# Excerpt: The engagement of TLRs by cognate ligands triggers downstream signaling cascades, leading to the activation of NF-κB and other transcription factors which initiate various immunomodulatory effects. The human embryonic kidney cell line, HEK293, is essentially non-responsive to TLR agonists, but ectopic expression of TLRs in these cells allows cognate agonists to activate endogenous NF-κB. Accordingly, the HEK293-TLR-NF-κB inducible reporter system is used to assay TLR agonists.
# HEK293 cell lines stably expressing human TLR7 or TLR8 together with an NF-κB-driven-secreted alkaline phosphatase (SEAP) reporter were invented at InvivoGen (San Diego, California, USA) and used to assess compounds of the present invention for TLR7 and TLR8 agonist activities. Cells were seeded at 2-5×10^4 cells/well in 96 well plates (200 μl/well) and treated with various concentrations of compound (10 μl) for 15-24 hours. SEAP activity was determined by measuring OD at 650 nm; the media used to culture the cell lines contains the reagents required for SEAP detection. The EC50 values in Table 1 are calculated from fitting the dose response of measured SEAP activity for each compound to the following equation: Y=ymax*c^nh/(EC50^nh+c^nh)+blank where Y is the experimentally measured OD650 at concentration c of test article, blank is the observed OD650 in the absence of TLR7 agonist, ymax is the difference between the measured OD650 in the presence of 28.5 μM resiquimod and the blank and values of EC50 and nh are determined by nonlinear least squares analysis. Resiquimod is a known TLR7 and TLR8 agonist.
# Compound A is 5-amino-3-((2R,3R,5S)-3-hydroxy-5-((S)-1-hydroxypropyl)tetrahydrofuran-2-yl)thiazolo[4,5-d]pyrimidine-2,7(3H,6H)-dione)
# [2] = tested on: hPBMCs (Human Peripheral Blood Mononuclear Cells); experiment: Induction of interferon-α in hPBMCs in vitro; type: cell-based; conditions: for Emax / minimal effective concentration: Homo sapiens, PBMC; for Emax: 24 h, peak IFNα2a as percentage of peak response of standard 2-Amino-7-(cyclopropylmethyl)-9-B-D-xylofuranosyl-7,9-dihydro-1H-purine-6,8-dione, averaged across donors, read-out: IFNrmax, Relative Maximal IFNα2a Production (%); for minimal effective concentration: minimal effective concentration for interferon-α production (generally at least 80 pg/ml above baseline), geometric mean across at least three donors, 24 hours, read-out: Weighted MEC
# Procedure: Treatment of hPBMCs with a TLR7 agonist typically induces some production of interferon-α as well as lesser amounts of a variety of other cytokines and chemokines. A typical experiment uses hPBMCs isolated from a healthy donor and placed in replicate cell culture wells; typically 1.0-7.5×10^6 cells are placed in each well. A test compound is added and the cells are cultured for 24 hours at 37° C. in a humidified atmosphere containing 5% CO2 post-addition; untreated controls are included. Secreted interferon-α production is measured using an a multisubtype interferon-α ELISA kit like those from PBL Assay Sciences or specifically as IFNα2a as part of a panel of cytokines and chemokines using luminex methodologies.
# The minimal effective concentration (MEC) is the minimum concentration in a dose response curve where a significant increase in interferon-α production (generally at least 80 pg/ml) is observed above baseline. MEC values for each compound are determined for at least three donors. The weighted MEC for each compound is the geometric mean of all individual MECs across all donors. Concentrations tested typically consist of a two-fold dilution series starting at 100 μM. In the calculation of weighted MEC, any individual MEC value greater the highest concentration tested is arbitrarily set to two times the highest concentration tested unless all MECs for a compound exceed this value. The maximal amount of IFNα2a for each donor is determined from dose dependence for each compound.
# In order to normalize for variation in each hPBMC preparation, these values are first transformed by expressing as a percentage of peak response measured with a standard (2-Amino-7-(cyclopropylmethyl)-9-B-D-xylofuranosyl-7,9-dihydro-1H-purine-6,8-dione) and then averaging the results across all donors, this average referred to as IFNrmax.
# IFNmax is the maximum amount of IFN observed at any concentration across the evaluated concentration range. MEC and IFNmax values for three select compound are shown for three donors (Table 3). The range of tested concentrations were 0.625-5 μM for Imiquimod, 3.125-100 μM for both Compound A and Compound 1, 12.5-100 μM for Compound 2.
# [3] = HEK293, 500 μM compound, SEAP activity (OD 650 nm) relative to 28.5 μM resiquimod, 15-24 hours, read-out: Response at 500 μM Compound as a Percent of Resiquimod Response
Compound,"Emax at 500 µM [1, 3]",EC50 ([1]; 15-24 hours),Emax [2],minimal effective concentration [2],"Emax at 500 µM ([1]; HEK293, read-out: Response at 500 μM Compound as a Percent of Resiquimod Response)","Donor 1 MEC ([2]; Donor 1, interferon-α production)","Donor 1 IFNmax ([2]; Donor 1, maximum IFN at any concentration of the evaluated range)","Donor 2 MEC ([2]; Donor 2, interferon-α production)","Donor 2 IFNmax ([2]; Donor 2, maximum IFN at any concentration of the evaluated range)","Donor 3 MEC ([2]; Donor 3, interferon-α production)","Donor 3 IFNmax ([2]; Donor 3, maximum IFN at any concentration of the evaluated range)"
"C#CCn1c(=O)n([C@@H]2O[C@H](C(=O)OC)C[C@H]2O)c2nc(N)[nH]c(=O)c21 [Compound 39, Methyl (2S,4R,5R)-5-(2-amino-6,8-dioxo-7-(prop-2-yn-1-yl)-1,6,7,8-tetrahydro-9H-purin-9-yl)-4-hydroxytetrahydrofuran-2-carboxylate]",< 5%,,≤ 10%,> 50 µM,,,,,,,
"CCCCn1c(=O)n([C@@H]2O[C@H]([C@@H](O)CC)[C@H](F)[C@H]2O)c2nc(N)[nH]c(=O)c21 [Compound 30, 2-Amino-7-butyl-9-((2R,3S,4R,5R)-4-fluoro-3-hydroxy-5-((S)-1-hydroxypropyl)tetrahydrofuran-2-yl)-7,9-dihydro-1H-purine-6,8-dione]",87%,94 µM,347%,1.6 µM,,,,,,,
"Nc1nc2c(c(=O)[nH]1)n(CC1CC1)c(=O)n2[C@@H]1O[C@H]([C@@H](O)C(F)(F)F)C[C@H]1O [Compound 29, 2-Amino-7-(cyclopropylmethyl)-9-((2R,3R,5S)-3-hydroxy-5-((R)-2,2,2-trifluoro-1-hydroxyethyl)tetrahydrofuran-2-yl)-7,9-dihydro-1H-purine-6,8-dione]",79%,201 µM,83%,6.3 µM,,,,,,,
"CC[C@H](O)[C@H]1O[C@@H](n2c(=O)n(CC(F)(F)F)c3c(=O)[nH]c(N)nc32)[C@H](O)[C@H]1F [Compound 44, 2-Amino-9-((2R,3S,4R,5R)-4-fluoro-3-hydroxy-5-((S)-1-hydroxypropyl)tetrahydrofuran-2-yl)-7-(2,2,2-trifluoroethyl)-7,9-dihydro-1H-purine-6,8-dione]",101%,86 µM,250%,2 µM,,,,,,,
"C#CCn1c(=O)n([C@@H]2O[C@H]([C@H](O)CC)C[C@H]2O)c2nc(N)[nH]c(=O)c21 [Compound 2, 2-amino-9-((2R,3R,5S)-3-hydroxy-5-((R)-1-hydroxypropyl)tetrahydrofuran-2-yl)-7-(prop-2-yn-1-yl)-7,9-dihydro-1H-purine-6,8-dione]",,,,,< 5%,50 µM,4523 pg/mL,>100 µM,9 pg/mL,100 µM,3110 pg/mL
"C#CCn1c(=O)n([C@@H]2O[C@H]([C@@H](O)CC)[C@H](F)[C@H]2O)c2nc(N)[nH]c(=O)c21 [Compound 13, 2-Amino-9-((2R,3S,4R,5R)-4-fluoro-3-hydroxy-5-((S)-1-hydroxypropyl)tetrahydrofuran-2-yl)-7-(prop-2-yn-1-yl)-7,9-dihydro-1H-purine-6,8-dione]",92%,119 µM,353%,≤ 3.3 µM,,,,,,,

# Now from value to molecule, other results behind:
"Emax at 500 µM [1, 3]",EC50 ([1]; 15-24 hours),Compound,Emax [2],minimal effective concentration [2],"Emax at 500 µM ([1]; HEK293, read-out: Response at 500 μM Compound as a Percent of Resiquimod Response)","Donor 1 MEC ([2]; Donor 1, interferon-α production)","Donor 1 IFNmax ([2]; Donor 1, maximum IFN at any concentration of the evaluated range)","Donor 2 MEC ([2]; Donor 2, interferon-α production)","Donor 2 IFNmax ([2]; Donor 2, maximum IFN at any concentration of the evaluated range)","Donor 3 MEC ([2]; Donor 3, interferon-α production)","Donor 3 IFNmax ([2]; Donor 3, maximum IFN at any concentration of the evaluated range)"
< 5%,,"C=C=Cn1c(=O)n([C@@H]2O[C@H]([C@@H](O)CC)C[C@H]2O)c2nc(N)[nH]c(=O)c21 [Compound 8, 2-Amino-9-((2R,3R,5S)-3-hydroxy-5-((S)-1-hydroxypropyl)tetrahydrofuran-2-yl)-7-(propa-1,2-dien-1-yl)-7,9-dihydro-1H-purine-6,8-dione]",215%,5.4 µM,,,,,,,
73%,287 µM,"CC[C@H](O)[C@@H]1C[C@@H](O)[C@H](n2c(=O)n(C[C@@H](C)O)c3c(=O)[nH]c(N)nc32)O1 (single isomer, unassigned) [Compound 33]",143%,9.9 µM,,,,,,,
69%,224 µM,"CC[C@H](O)[C@@H]1C[C@@H](O)[C@H](n2c(=O)n(CCSC)c3c(=O)[nH]c(N)nc32)O1 [Compound 22, 2-Amino-9-((2R,3R,5S)-3-hydroxy-5-((S)-1-hydroxypropyl)tetrahydrofuran-2-yl)-7-(2-(methylthio)ethyl)-7,9-dihydro-1H-purine-6,8-dione]",307%,6.3 µM,,,,,,,
< 5%,,"C#CCn1c(=O)n([C@@H]2O[C@H]([C@@H](O)CO)C[C@H]2O)c2nc(N)[nH]c(=O)c21 [Compound 14, 2-Amino-9-((2R,3R,5S)-5-((S)-1,2-dihydroxyethyl)-3-hydroxytetrahydrofuran-2-yl)-7-(prop-2-yn-1-yl)-7,9-dihydro-1H-purine-6,8-dione]",≤ 10%,> 50 µM,,,,,,,
58%,182 µM,"C#CCn1c(=O)n([C@@H]2O[C@H]([C@H](C)O)C[C@H]2O)c2nc(N)[nH]c(=O)c21 [Compound 9, 2-Amino-9-((2R,3R,5S)-3-hydroxy-5-((S)-1-hydroxyethyl)tetrahydrofuran-2-yl)-7-(prop-2-yn-1-yl)-7,9-dihydro-1H-purine-6,8-dione]",191%,6.2 µM,,,,,,,
52%,327 µM,"C#CCn1c(=O)n([C@@H]2O[C@H]([C@@H](O)CF)C[C@H]2O)c2nc(N)[nH]c(=O)c21 [Compound 24, 2-Amino-9-((2R,3R,5S)-5-((R)-2-fluoro-1-hydroxyethyl)-3-hydroxytetrahydrofuran-2-yl)-7-(prop-2-yn-1-yl)-7,9-dihydro-1H-purine-6,8-dione]",205%,12.5 µM,,,,,,,
